The values that follow come from patent publication US10849926B2, “GM3-promoted inflammation inhibitor and inflammatory cytokine production inhibitor” (THE NOGUCHI INSTITUTE, priority 2015, dated 2020).

Holding throughout (assay type): cell-based
In assay [1] the test system is Human peripheral blood-derived monocytes (CD14 positive cells). The experiment in a line: LPS-dependent inflammatory cytokine production in human peripheral blood-derived monocytes (ELISA). As to conditions: LPS 0.125 ng/mL + 1.25, 2.5, or 5.0 μM ganglioside. The method, then: (§1) Human peripheral blood-derived monocytes (CD14 positive cells) were cultured in DMEM (Low Glucose) containing 0.5% FCS and 25 ng/mL of granulocyte/macrophage colony stimulating factor, and co-stimulated with 0.125 ng/mL of E. coli-derived lipopolysaccharide (LPS, E. coli O111:B4), and 1.25, 2.5, or 5.0 μM of N-mix (neutral glycosphingolipid mixture (Glc-Cer, Lac-Cer, Gb3, and Gb4)) or each of the ganglioside molecular species. 18 hours later, the inflammatory cytokines (IL-6, IL-1β, and TNF-α) secreted in the culture supernatant were quantitated using the ELISA method.

Assay [2] relates to human monocytes. The experiment in a line: IL-6 production in human monocytes by LPS with or without GM3C22 or GM3C24 (ELISA). The method, then: as §1
Under the same culture conditions as in Example 5, “GM3C16”, “GM3C18” or “GM3C24:1” which inhibited inflammation was combined to “GM3C22” or “GM3C24” which promoted inflammation. The resultant combination was added to the monocytes and further stimulated with 0.06 ng/mL of LPS (i.e., a TLR4 activating factor). 18 hours later, the inflammatory cytokine IL-6 secreted in the culture supernatant was quantitated using the ELISA method.

Assay [3] concerns TLR4. The experiment in a line: IL-6 production in human monocytes stimulated with LPS (TLR4 activating factor). As to conditions: LPS 0.125 ng/mL, 5 μM GM3 molecular species, 18 hours (FIG. 12). The method, then: as §1
(§2) Then, under the same culture conditions as in Example 5, human monocytes were stimulated using any of 0.125 ng/mL of LPS (i.e., TLR4 activating factor), 5.0 μg/mL of high mobility group box 1 (HMGB 1) (i.e., a TLR4 and TLR2 activating factors), 20 ng/mL of Pam3Csk4 (i.e., a TLR1 and TLR2 activating factors), 1.0 ng/mL of MALP-2 (i.e., TLR2 and TLR6 activating factors), 50 ng/mL of Flagellin (i.e., a TLR5 activating factor), and 250 ng/mL of R-848 (i.e., TLR7 and TLR8 activating factors); and 5 μM of GM3 molecular species. 18 hours later, the inflammatory cytokine IL-6 secreted in the culture supernatant was quantitated using the ELISA method.

In assay [4] the test system is TLR4 and TLR2. The experiment in a line: IL-6 production in human monocytes stimulated with HMGB1 (TLR4 and TLR2 activating factor). The settings on record: HMGB 1 5.0 μg/mL, 5 μM GM3 molecular species, 18 hours (FIG. 12). The method, then: as §1, §2
For assay [5], the system named is TLR1 and TLR2. The experiment in a line: IL-6 production in human monocytes stimulated with Pam3Csk4 (TLR1 and TLR2 activating factor). The settings on record: Pam3Csk4 20 ng/mL, 5 μM GM3 molecular species, 18 hours (FIG. 12). The method, then: as §1, §2

With `CCCCCCCCC=CCCCCCCCCCCCCCC(=O)NC(COC1OC(CO)C(OC2OC(CO)C(O)C(OC3(C(=O)O)CC(O)C(NC(C)=O)C(C(O)C(O)CO)O3)C2O)C(O)C1O)C(O)C=CCCCCCCCCCCCCC` (centres unmarked) [GM3C24:1], in assay [1] (18 hours (FIG. 8)), the “production of IL-6 by LPS” value is “inhibiting”. The “production of IL-1β by LPS” value in assay [1] (18 hours (FIG. 9)) was “inhibiting”. Also, the “production of TNF-α by LPS” value in assay [1] (18 hours (FIG. 10)) was “inhibiting”. In addition, the “production of IL-6 in response to stimulation promoted by the addition of GM3C22 and GM3C24” value in assay [2] (LPS 0.06 ng/mL + GM3C22 or GM3C24, 18 hours (FIG. 11)) is “strongly inhibited”. Besides, the “production of IL-6 in response to LPS stimulation” value in assay [2] (LPS 0.06 ng/mL only, 18 hours (FIG. 11)) is on record as “strongly inhibited”. Besides, the “IL-6 production by LPS” value in assay [3] is reported as “inhibitory action”. For the same molecule, the “IL-6 production by HMGB1” value in assay [4] is listed as “inhibitory action”. Further, the “IL-6 production by Pam3Csk4” value in assay [5] is on record as “inhibitory action was also observed”.
